*1 amine or outer side, *2 acyl side, *3 side chain or, on linkers, in order; H or OH if unused. Where a SMILES comes first, the peptide text is derived from it. [ ]: non-standard residue; d: D form. Ahppa(3S,4S) = O=C(C[C@H](O)[C@H](Cc1ccccc1)N[*:1])[*:2]; dNMeF = CN[C@H](Cc1ccccc1)C(=O)O; NMeQ = CN[C@@H](CCC(N)=O)C(=O)O; Lac = C[C@H](O)C(=O)O

The subject of this assay is KB. The experiment in a line: Cytotoxicity against human KB cells. The format is functional, cell-based.

What is called IC50 is the concentration at which inhibition is half-maximal. Compound `COC(=O)[C@@H]1CCCN1C(=O)[C@@H](Cc1ccccc1)N(C)C(=O)[C@H](C)NC(=O)[C@H](CC(C)C)NC(=O)C[C@H](O)[C@H](Cc1ccccc1)NC(=O)[C@H](CCC(N)=O)N(C)C(=O)[C@@H](NC(=O)[C@H](C)O)C(C)C` [TASIAMIDE B] (H-[Lac]V[NMeQ][Ahppa(3S,4S)]LA[dNMeF]P-OMe) returned an IC50 of 800 nM.

Source of the values: ChEMBL document CHEMBL1146560, “The isolation and structure elucidation of Tasiamide B, a 4-amino-3-hydroxy-5-phenylpentanoic acid containing peptide from the marine Cyanobacterium Symploca sp” (J Nat Prod, 2003).
